Measured values from patent US8278359B2, “Compositions containing amines and use thereof to treat acne or reduce the appearance of oil or pores on the skin” (Johnson & Johnson Consumer Companies, Inc., priority 2005, dated 2012).

Legend:
[1] = system: Human keratinocytes; assay: Visual contraction of keratinocytes by real time microscopy (cell area); format: cell-based; settings: 0.1%
Protocol: Human keratinocytes and Epilife culture media (Cascade Biologics, Portland, Oreg.) were cultured at 37° C. in a humidified atmospheres of 5% CO2/95% air. Glass Cover Slides (Applied Biophysics, Troy, N.Y.) were coated with 0.01 mg/ml Laminin V (Sigma Aldirch, St Louis, Mo.) in sterile Phosphate Buffered Saline (Gibco Life Sciences, San Diego, Calif.). Human keratinocytes were prepared at a density of 0.125×10^6 cells/mL in Epilife culture media. Human keratinocytes were plated at 3.75×10^4 cells/well on a 6 well plate containing Laminin coated coverslips and cultured at 37° C. in a humidified atmospheres of 5% […] for 48 hrs. Individual coverslips were transferred to a open bath imaging chamber (Warner Instruments, Hamden, Conn.) mounted on a Leica inverted microscope (Leitz DM1L) with an attached CCD camera. Cells were perfused with Hank's Buffered Salt Solution (HBSS; Gibco Life Sciences, San Diego, Calif.) at flow rate of 1 ml/min using a peristaltic pump (Cole Parmer, Vernon Hills, Ill.). […] Cell area was determined using Scion Image software (Version 4.0.2), and reductions in cell area were reported as the ratio of cell area after treatment to cell area prior to treatment

[2] = system: B16 cells; assay: Induction of pigmentation in vitro, DOPA staining; format: cell-based, murine; settings: pH 7.2, 48 hours
Protocol: THPED was tested for its effect on pigmentation, using melanocytes, DOPA staining and computerized image analysis. THPED was obtained from BASF (Florham Park, N.J.). THPED was dissolved in culture medium and pH was adjusted to neutral (pH 7.2). THPED was assayed at concentrations ranging from 0.05-0.01%.
B16 cells (a murine melanoma cell line) were obtained from American Type Culture Collection (Manassas, Va.). Cells were cultured in Dulbecco's Modified Eagle Medium (DMEM) containing 10% fetal bovine serum (FBS), 4.5 mg/ml glucose, 2 mM L-glutamine, sodium pyruvate, without phenol red (Invitrogen, Carlsbad, Calif.). B16 cells were plated on 12 well tissue culture plates (Corning Costar, San Diego, Calif.), at 40,000 cells per well in the above culture media. Cells were allowed to grow overnight and then treated with various concentrations of THPED at pH 7.2 for total 48 hours. Fresh media containing the experimental treatments were changed once daily.
At the end of the treatment, the cells were washed for 5 minutes, twice, in phosphate-buffered saline (PBS, from Life Technologies, Gaithersburg, Md.), then briefly fixed in 10% buffered formalin (from Sigma St. Louis, Mo.) for 10 minutes, washed three times with PBS and stained with 0.1% L-3,4-Dihydroxyphenylalanine (DOPA, from Sigma, St. Louis, Mo.) in PBS for 2-3 hours at 37° C., followed by three PBS washes. DOPA is a substrate for tyrosinase; therefore an increase in staining represents increased tyrosinase activity and pigment production. Images of DOPA-stained cells were taken using a Leica DMIL microscope (Bannockburn, Ill.) and an OPTRONICS DEI-750 digital camera (Goleta, Calif.). All images were obtained and analyzed with Image Pro Plus 4.0 software (Media Cybernetics, Silver Spring, Md.).
The pigment change was evaluated using the scale defined in Table XII.

[3] = system: tyrosinase; assay: Tyrosinase activity in lysates of treated B16 cells (DOPA, absorbance 490 nm); format: cell-based, murine; settings: pH 7.2, B16 cells 48 hours, activity at 3-hours, normalized for total protein
Protocol: THPED was also tested for its ability to induce tyrosinase activity in B16 cells by spectroscopic measuring of the final product, melanin. B16 cells were treated with THPED at different concentrations at pH 7.2 for 48 hours and cells were then lysed in 250 μl of PBS containing 1% Triton X-100 (Sigma, St. Louis, Mo.). The lysates were collected and centrifuged at 14,000 rpm for 5 minutes at 4° C. to pellet any insoluble material. Lysates (100 μl) were transferred to a 96 well assay plate (Corning Costar, San Diego, Calif.) and mixed with 100 μl of 0.1% (w/v) DOPA in PBS. The absorbance at 490 nm was then monitored from 0 to 12 hours using a VersaMax Plate Spectrophotometer (Molecular Devices, Sunnyvale, Calif.) and SoftMax Pro analytical software (Molecular Devices, Sunnyvale, Calif.). The tyrosinase activities were normalized for total protein using the BioRad Dc Protein Assay (Bio Rad, Hercules, Calif.).

[4] = system: macrophages; settings: Bhide M V et al., Immunopharmacol. 1985; cited from earlier work

## CC(O)CN(CCN(CC(C)O)CC(C)O)CC(C)O (stereo not shown) [THPED, N,N,N′,N′-Tetrakis(2-hydroxypropyl)ethylenediamine]
[1]; 2 Min
  Visual Contraction of Human Keratinocytes (reduction in cell area, Mean ± Std Dev): 32.9% ±
[1]; 10 Min
  Visual Contraction of Human Keratinocytes (reduction in cell area, Mean ± Std Dev): 37.9% ± 10.7%
[1]; 20 Min
  Visual Contraction of Human Keratinocytes (reduction in cell area, Mean ± Std Dev): 47.3% ± 12.7%
[2]; 0.01% (w/v)
  Pigmentation score: 1
[2]; 0.025% (w/v)
  Pigmentation score: 2
[2]; 0.05% (w/v)
  Pigmentation score: 4
[3]; 0.01%
  % tyrosinase activity relative to untreated control: 104.15%
[3]; 0.025%
  % tyrosinase activity relative to untreated control: 167.39%
[3]; 0.05%
  % tyrosinase activity relative to untreated control: 201.90%
[4]
  effect on macrophages in culture: increased macrophage activation
